These results are taken from paper PMC6680932, “Structure–Antioxidant–Antiproliferative Activity Relationships of Natural C7 and C7–C8 Hydroxylated Flavones and Flavanones” (Antioxidants, 2019).

Data set [1] can be described thus: DPPH free radical scavenging activity assay. The settings on record: 10 min, 517 nm; mean ± SD. The protocol: The antioxidant capacity of flavonoids was measured in three separate tests: ABTS, DPPH, and ferric ion reducing antioxidant power (FRAP) assays (ABTS, DPPH, and FRAP reagents from Sigma-Aldrich). All tested compounds were dissolved in DMSO. All determinations were performed in triplicate. Standard curves were prepared for all assays using different concentrations of Trolox (6-hydroxy-2,5,7,8-tetramethylchroman-2-carboxylic acid) (Sigma-Aldrich). Trolox is a water-soluble analogue of vitamin E with high antioxidant activity, commonly used as a control and a reference in studies of antioxidant activity. The results were expressed as the equivalent of μmol Trolox per μmol of the test compound. The absorbance was measured using a UV-2401 PC spectrophotometer (Shimadzu, Kyoto, Japan). Concentrations of the tested samples were in the range from 50 µg/mL to 10 mg/mL.
The DPPH (2,2-diphenyl-1-picrylhydrazyl) radical scavenging activity of samples was determined according to the method described by Yen and Chen with some modifications. Samples (0.1 mL) of known concentration were mixed in polystyrene cuvettes with 2 mL of 0.04 mM DPPH in ethanol and 0.4 mL of ethanol. The absorbance was measured after 10 min at λ = 517 nm. The DPPH reagent was freshly prepared before each experiment.
Background: DPPH is a stable violet radical that fades when it is reduced.

Data set [2] relates to LoVo (colon cancer). In words: Antiproliferative activity in vitro, SRB assay. In kind it is cell-based, human. The conditions noted are these: Homo sapiens, LoVo, 72 h, 72 h exposure, SRB; read-out: IC50 ± SD LoVo. The protocol: (§1) The antiproliferative studies were performed in vitro using human cancer cell lines—MV-4-11 (biphenotypic B myelomonocytic leukemia), MCF7 (breast carcinoma), LoVo (colon cancer), LoVo/DX (colon cancer doxorubicin-resistant), and DU 145 (prostate cancer)—and normal human cell lines—MCF 10A (breast cells) and HLMEC (lung microvascular endothelial cells). The cell lines MV-4-11, LoVo, DU 145, and MCF 10A were obtained from the American Type Culture Collection (Rockville, Maryland, USA), MCF7 from the European Collection of Authenticated Cell Cultures (ECACC, Salisbury, UK), LoVo/DX courtesy of Professor E. Borowski (Technical University of Gdansk, Poland), and HLMECs (which had been already immortalized by transfection with pSV3-neoplasmid containing large T-antigen gene) were the kind gift of Professor Claudine Kieda (Center for Molecular Biophysics, Orleans, France). The cell lines are being maintained in the Hirszfeld Institute of Immunology and Experimental Therapy, Polish Academy of Sciences (HIIET, PAS), Wroclaw, Poland. All cell lines were grown at 37 °C with 5% CO2 humidified atmosphere. The MV-4-11 cells were cultured in RPMI 1640 medium with GlutaMAX (Gibco, Scotland, UK), supplemented with 1 mM sodium pyruvate and 10% fetal bovine serum (both from Sigma-Aldrich, Poznan, Poland). The MCF7 cells were cultured in Eagle medium (HIIET, PAS, Wroclaw, Poland) supplemented with 2 mM L-glutamine, 10% fetal bovine serum, 1% nonessential amino acid solution, and 0.8 mg/L of insulin (all from Sigma-Aldrich, Poznan, Poland). The LoVo and LoVo/DX cells were cultured in a 1:1 (v/v) mixture of RPMI 1640 and Opti-MEM (both HIIET, PAS, Wroclaw, Poland), supplemented with 1 mM sodium pyruvate, 2 mM L-glutamine, and 5% fetal bovine serum (all from Sigma-Aldrich, Poznan, Poland). For LoVo/DX cells, additionally 10 µg/100 mL of doxorubicin (Accord Healthcare) was added to the medium. DU 145 cells were cultured in Eagle medium (HIIET, PAS, Wroclaw, Poland) supplemented with 1 mM sodium pyruvate, 4 mM L-glutamine, and 10% fetal bovine serum (all from Sigma-Aldrich, Poznan, Poland). The MCF 10A cells were cultured in the F-12 nutrient mixture (Gibco, Scotland, UK), supplemented with 5% horse serum (Gibco, Scotland, UK), 0.05 μg/mL of cholera toxin (Vibrio cholerae), 0.5 μg/mL of hydrocortisone, 10 μg/mL of insulin, and 20 ng/mL of human epidermal growth factor (all from Sigma-Aldrich, Poznan, Poland). The HLMEC cells were cultured in the RPMI 1640 medium (HIIET, PAS, Wroclaw, Poland) with the addition of 2 mM L-glutamine (Sigma-Aldrich, Poznan, Poland) and 10% fetal bovine serum (GE Healthcare). All culture media were supplemented with 100 units/mL penicillin (Polfa Tarchomin S.A., Warsaw, Poland) and 100 µg/mL streptomycin (Sigma-Aldrich, Poznan, Poland). Twenty-four hours before addition of the tested agents, the cells were plated in 96-well plates (Sarstedt, Germany) at a density of 1 × 10^4 (1 × 10^3 for HLMEC and 0.75 × 10^4 for MCF7) cells per well in 100 μL of culture medium.
(§2) Tested compounds were dissolved in DMSO and then diluted in a 1:1 (v/v) mixture of RPMI 1640 (HIIET, PAS, Wroclaw, Poland) and Opti-MEM (Gibco, Scotland, UK) medium supplemented with 2 mM L-glutamine (Sigma-Aldrich, Poznan, Poland), 5% fetal bovine serum (GE Healthcare), 100 units/mL penicillin (Polfa Tarchomin S.A., Warsaw, Poland), and 100 µg/mL streptomycin (Sigma-Aldrich, Poznan, Poland). The antiproliferative effects of the flavonoids were examined after 72 h of exposure of the cultured cells to varying concentrations of the tested agents (from 0.1 to 100 μg/mL) using the MTT (for MV-4-11 cells) or SRB assay described below. Cisplatin (chemotherapy drug used to treat a number of cancers) was used as a positive control. The results are presented as an inhibitory concentration 50 (IC50), which is the concentration of the tested agent that inhibits proliferation of the cell population by 50%. IC50 values for each experiment were calculated separately. […]

The test system of data set [3] is HLMEC (lung microvascular endothelial cells). Nature of the data set: Antiproliferative activity in vitro, SRB assay. The settings on record: Homo sapiens, Endothelial cell; 72 h exposure, SRB; normal cell line; read-out: IC50 ± SD HLMEC. In kind it is cell-based, human. The protocol:
as §1, §2
(In general: In SRB staining, fixed cells bind dye roughly in proportion to their protein.)

Data set [4] concerns HLMEC cultures. In words: Stability of flavonoids in the cell cultures, HPLC. In kind it is in vitro ADME, human. The conditions noted are these: 100 μg/mL, 3 h of incubation. As to the method: (§3) Flavonoids dissolved (as described in Section 2.4) were added to the HLMEC and MCF7 line cultures, and the final concentration was 100 μg/mL. The cultures were incubated in 96-well plates for 3 h and transferred to microtubes containing 400 µL of cold methanol (−20 °C) and kept at −20 °C for 1 h. After centrifugation at 12,000× g for 10 min, samples were analyzed by HPLC. To determine the stability of flavonoids in HLMEC and MCF7 culture media (not containing cells) under analogous conditions, control experiments were also carried out.

The subject of data set [5] is MCF7 cultures. Nature of the data set: Stability of flavonoids in the cell cultures, HPLC. In kind it is in vitro ADME, human. The conditions noted are these: 100 μg/mL, 3 h of incubation. As to the method: as §3
Data set [6] deals with DU 145 (prostate cancer). Nature of the data set: Antiproliferative activity in vitro, SRB assay. In kind it is cell-based, human. The settings on record: Homo sapiens, DU-145; 72 h exposure, SRB; read-out: IC50 ± SD DU 145.

With `O=C1C[C@@H](c2ccc(O)cc2)Oc2cc(O)cc(O)c21` [Compound 6, naringenin], the “TEAC DPPH” value in data set [1] was 0.017 ± 0.002 µmol trolox per µmol of tested. The IC50 came out at 121 ± 4.3 µM in data set [2], 114 ± 18.6 µM in data set [3] and 242 ± 15.6 µM in data set [6]. In addition, the “compound remaining after incubation in HLMEC cultures” value in data set [4] is listed as “over 98%”. In addition, in data set [5], the “compound remaining after incubation in MCF7 cultures” value is recorded as “over 98%”.

Regarding `O=c1cc(-c2ccc(O)cc2)oc2c(O)c(O)cc(O)c12` [Compound 10, 8-hydroxyapigenin], the “TEAC DPPH” value in data set [1] is 5.560 ± 0.121 µmol trolox per µmol of tested. Besides, the IC50 in data set [2] stood at 235 ± 57.1 µM; in data set [3], 122 ± 14.4 µM.

As to `O=c1cc(-c2ccc(O)cc2)oc2cc(O)cc(O)c12` [Compound 2, apigenin], in data set [1], the “TEAC DPPH” value is 0.005 ± 0.002 µmol trolox per µmol of tested. The IC50 in data set [2] stood at 13.8 ± 1.38 µM; in data set [3], 14.1 ± 0.91 µM; in data set [6], 28.9 ± 8.4 µM. Moreover, the “compound remaining after incubation in HLMEC cultures” value in data set [4] is “over 98%”. The “compound remaining after incubation in MCF7 cultures” value in data set [5] was “over 98%”.

In general, IC50 refers to the midpoint of a concentration-inhibition curve.
